From patent US6387955B1, “Enhanced anti-angiogenic activity of permanently charged derivatives of steroid hormones” (Pharmos Corporation, priority 1997, dated 2002)

Legend:
MCF-7 tumors = assay: Capillary density in MCF-7 tumor sections by microscopic morphometry; assay type: in vivo, nude mice; conditions: viable regions only
Experimental: Tumors from TMI-treated animals and from placebo-treated animals were removed after cervical dislocation. Tumors were treated with a biological dye (Davidson Marking Systems, Bradley Products, Bloomington, Minn.) so that histological sections could be oriented in the same direction as MRI slice images. The histological plane corresponding to the central slice of the MRI study was established by a single cut through the tumor. This plane was based on the position of the tumor in the spectrometer, sagittal, transverse and coronal images and anatomical landmarks. The bisected tumors were fixed in 10% formalin, dehydrated in 70% ethanol, blocked in paraffin. 4 μm histological sections were cut, placed on slides and stained with either hematoxylin-eosin or a modified trichrome method. Hematoxylin-eosin was used to assess viability, necrosis and pigmentation. The modified trichrome method was applied to the identification of fibrotic regions (i.e., the dye stains for mucopolysaccharides).
Vascular density was determined using two techniques: by morphometric analysis of histological sections and by image analysis of GSL-1 lectin stained sections. […] In each field, the number of grid squares containing capillaries, as defined by either the presence of red blood cells or a distinct endothelial cell, were recorded. […]

Bovine endothelial cells = assay: Endothelial cell tube formation on Matrigel; assay type: cell-based; conditions: 10 μM, image analysis
Experimental: Bovine endothelial cells were harvested by brief exposure to 1 mM EDTA, washed with DMEM containing 0.1% bovine serum albumin and added to a layer of Matrigel (basement membrane components) in a 24 well plate to a density of 50,000 cells per well. After attachment, culture media (1.0 ml) was added and the plates incubated as a monolayer culture in the presence or absence of various concentrations of TMI. The plates were analyzed hourly using Hoffman optics for endothelial tube formation and growth. Photomicrographs were taken for estimation of relative inhibitory action.
The action of TMI on angiogenesis was evaluated using in vitro techniques. Bovine endothelial cells seeded on matrigel (a basement membrane preparation made up of laminin, collagen type IV, heparin sulfate proteoglycan and entactin) will form tubes which elongate as a function of time. […] A dose of 10 μM of TMI decreased tube area by more than 70%, as measured by image analysis.

`CC/C(=C(\c1ccccc1)c1ccc(OCC[N+](C)(C)C)cc1)c1ccccc1` [TMI, Tamoxifen methiodide] was tested, and the “reduction in capillary area compared with the placebo” value (MCF-7 tumors) was 50% and the “decrease of tube area” value (Bovine endothelial cells) was “more than 70%”.
